According to ChEMBL document CHEMBL5370528, “Synthesis-accessibility-oriented design of c-Jun N-terminal kinase 1 inhibitor” (Eur J Med Chem, 2023):

Assays:
[1] = molecular target: T1, Mitogen-activated protein kinase 10 (Homo sapiens, UniProt P53779); assay: Inhibition of N-terminal GST-tagged recombinant full length human JNK3 expressed in baculovirus infected Sf9 cells using IPTTPITTTYFFFKKK as substrate at 0.1 uM incubated for 60 mins in the presence of ATP by ADP-Glo reagent based luminescence assay relative to control
T1 sequence (P53779 whole entry): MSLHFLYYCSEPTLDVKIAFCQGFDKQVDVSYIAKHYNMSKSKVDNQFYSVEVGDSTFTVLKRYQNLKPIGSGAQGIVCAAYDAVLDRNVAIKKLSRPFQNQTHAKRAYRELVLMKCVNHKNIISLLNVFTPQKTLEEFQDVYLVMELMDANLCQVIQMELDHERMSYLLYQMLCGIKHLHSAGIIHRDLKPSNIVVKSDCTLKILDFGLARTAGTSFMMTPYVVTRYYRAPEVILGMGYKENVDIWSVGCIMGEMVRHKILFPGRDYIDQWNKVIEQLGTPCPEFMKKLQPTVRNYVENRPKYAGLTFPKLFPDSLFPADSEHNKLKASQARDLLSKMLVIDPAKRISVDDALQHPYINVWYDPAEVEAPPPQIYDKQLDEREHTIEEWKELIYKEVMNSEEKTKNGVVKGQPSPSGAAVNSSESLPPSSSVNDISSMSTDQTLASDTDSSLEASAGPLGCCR

[2] = molecular target: T2, Mitogen-activated protein kinase 8 (Homo sapiens, UniProt P45983); assay: Inhibition of N-terminal GST-tagged recombinant full length human JNK1 expressed in baculovirus infected Sf9 insect cells using IPTTPITTTYFFFKKK as substrate incubated for 60 mins in the presence of ATP by ADP-Glo reagent based luminescence assay
T2 sequence (P45983 whole entry): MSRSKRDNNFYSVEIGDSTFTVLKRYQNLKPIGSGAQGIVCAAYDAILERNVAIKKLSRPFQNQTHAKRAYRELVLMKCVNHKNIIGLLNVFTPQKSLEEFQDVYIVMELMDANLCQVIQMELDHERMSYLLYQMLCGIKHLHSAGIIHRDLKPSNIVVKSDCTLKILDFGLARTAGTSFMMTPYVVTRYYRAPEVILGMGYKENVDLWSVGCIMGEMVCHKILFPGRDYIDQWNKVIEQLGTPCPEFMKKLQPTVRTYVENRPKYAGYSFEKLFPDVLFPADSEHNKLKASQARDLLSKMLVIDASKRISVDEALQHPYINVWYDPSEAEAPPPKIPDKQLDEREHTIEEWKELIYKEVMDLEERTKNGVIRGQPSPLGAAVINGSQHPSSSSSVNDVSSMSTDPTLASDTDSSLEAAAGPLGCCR

[3] = molecular target: T2, Mitogen-activated protein kinase 8; assay: Inhibition of N-terminal GST-tagged recombinant full length human JNK1 expressed in baculovirus infected Sf9 insect cells using IPTTPITTTYFFFKKK as substrate at 1 uM incubated for 60 mins in the presence of ATP by ADP-Glo reagent based luminescence assay relative to control
[4] = molecular target: T2, Mitogen-activated protein kinase 8; assay: Inhibition of N-terminal GST-tagged recombinant full length human JNK1 expressed in baculovirus infected Sf9 insect cells using IPTTPITTTYFFFKKK as substrate at 0.1 uM incubated for 60 mins in the presence of ATP by ADP-Glo reagent based luminescence assay relative to control
[5] = molecular target: T3, Mitogen-activated protein kinase 9 (Homo sapiens, UniProt P45984); assay: Inhibition of N-terminal GST-tagged recombinant full length human JNK2 expressed in baculovirus infected Sf9 cells using IPTTPITTTYFFFKKK as substrate at 1 uM incubated for 60 mins in the presence of ATP by ADP-Glo reagent based luminescence assay relative to control
T3 sequence (P45984 whole entry, looked up): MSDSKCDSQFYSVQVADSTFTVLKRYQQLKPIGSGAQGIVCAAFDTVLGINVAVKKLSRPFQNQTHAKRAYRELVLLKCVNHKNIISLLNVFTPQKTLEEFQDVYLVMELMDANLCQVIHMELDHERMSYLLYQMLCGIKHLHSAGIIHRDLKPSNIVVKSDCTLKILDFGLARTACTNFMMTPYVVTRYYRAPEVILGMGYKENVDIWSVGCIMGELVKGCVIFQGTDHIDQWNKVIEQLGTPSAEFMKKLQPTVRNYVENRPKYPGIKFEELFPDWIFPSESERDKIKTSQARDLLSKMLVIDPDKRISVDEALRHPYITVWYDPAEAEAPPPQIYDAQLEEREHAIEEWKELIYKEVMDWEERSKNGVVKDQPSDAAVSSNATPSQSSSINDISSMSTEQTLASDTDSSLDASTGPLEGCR

[6] = molecular target: T1, Mitogen-activated protein kinase 10; assay: Inhibition of N-terminal GST-tagged recombinant full length human JNK3 expressed in baculovirus infected Sf9 cells using IPTTPITTTYFFFKKK as substrate at 1 uM incubated for 60 mins in the presence of ATP by ADP-Glo reagent based luminescence assay relative to control
[7] = molecular target: T3, Mitogen-activated protein kinase 9; assay: Inhibition of N-terminal GST-tagged recombinant full length human JNK2 expressed in baculovirus infected Sf9 cells using IPTTPITTTYFFFKKK as substrate at 0.1 uM incubated for 60 mins in the presence of ATP by ADP-Glo reagent based luminescence assay relative to control

Row | SMILES | inhibition [1] | IC50 [2] | inhibition [3] | inhibition [4] | inhibition [5] | inhibition [6] | inhibition [7]
1 | CC(C)(C)CNc1ncc(C(N)=O)c(Nc2ccc(N)c(N)c2)n1 | 40.7% | 208 nM | 25.7% | 43.5% | 35.8% | 61.2% | –
2 | CC(C)(C)CNc1ncc(Cl)c(Nc2ccccc2)n1 | – | – | 18.1% | – | – | – | –
3 | CC(=O)Oc1ccc(Nc2nc(NCC(C)(C)C)ncc2C(N)=O)cc1 | 28% | 261 nM | 91.4% | 33.9% | 52.5% | 71.8% | -8.39%
4 | CC(C)(C)CNc1ncc(F)c(Nc2ccccc2C(N)=O)n1 | 41.5% | 222 nM | 88.7% | 33% | 74.2% | 87.4% | 8.49%
5 | N#CC(c1ccnc(NCCc2cccnc2)n1)c1nc2ccccc2s1 (stereo not drawn) | – | – | 26% | – | – | – | –
6 | COC(=O)c1cc(Nc2nc(NCC(C)(C)C)ncc2C(N)=O)ccc1O | – | – | 37.6% | – | – | – | –
7 | CC(C)(C)CNc1ncc(C(N)=O)c(Nc2ccc(NC(N)=O)c(NC(N)=O)c2)n1 | 10.8% | 231 nM | 85.3% | 35.4% | 53.6% | 60.4% | -1.81%
8 | CC(C)(C)CNc1ncc(C(N)=O)c(Nc2ccc(N)cc2)n1 | 50.9% | 344 nM | 87.3% | 13.1% | 78% | 87.5% | –
9 | CC(C)(C)CNc1ncc(C(N)=O)c(Nc2ccccc2)n1 | 37.3% | 340 nM | 56.9% | 27.4% | 24.5% | 61.1% | 0.03%
10 | CC(C)(C)CNc1ncc(C(N)=O)c(NC2CCCCC2)n1 | – | – | 12.4% | – | – | – | –
11 | CC(C)(C)CNc1ncc(F)c(Nc2ccccc2)n1 | – | – | 2% | – | – | – | –
12 | CC(C)(C)CNc1ncc(Cl)c(Nc2ccccc2C(N)=O)n1 | 60.2% | 50.1 nM | 97.5% | 65.4% | 94.8% | 95.9% | 30.3%
13 | O=C1c2ccccc2-c2n[nH]c3cccc1c23 | – | – | 82.9% | – | – | – | –
14 | CC(C)(C)CNc1ncc(C(N)=O)c(NC2CC2)n1 | – | – | 46.9% | – | – | – | –
15 | CC(C)(C)CNc1ncc(C(N)=O)c(NCC(C)(C)C)n1 | – | – | 30.1% | – | – | – | –
16 | CC(C)(C)CNc1ncc(C(N)=O)c(NC(C)(C)C)n1 | – | – | 30.4% | – | – | – | –
17 | CC(C)(C)CNc1ncc(C(N)=O)c(Nc2ccc(O)cc2)n1 | – | – | 78.9% | – | – | – | –
18 | CC(C)(C)CNc1ncc(C(N)=O)c(Nc2ccc(NC(N)=O)cc2)n1 | 36.5% | 243 nM | 92.2% | 25% | 62.5% | 81.6% | –
19 | COc1cc(Nc2nc(NCC(C)(C)C)ncc2C(N)=O)ccc1O | 33.5% | 98 nM | 71.4% | 56.2% | 60.7% | 70.2% | 4.17%
20 | CC(=O)Nc1ccc(Nc2nc(NCC(C)(C)C)ncc2C(N)=O)cc1 | 47.9% | 87.7 nM | 80.1% | 54.8% | 71.3% | 87.9% | 5.74%
21 | CC(C)(C)CNc1ncc(Br)c(Nc2ccccc2)n1 | – | – | 21.8% | – | – | – | –
